{"source": "patent USRE39591E1", "about": "“6-O-substituted ketolides having antibacterial activity” (Abbott Laboratories, priority 1996, dated 2007)", "system": "up to 32 different microorganisms", "test": "in vitro antibacterial activity (MIC), agar dilution on Brain Heart Infusion (BHI) agar with Steers replicator", "format": "cell-based", "conditions": "unit assumed", "how_it_was_run": "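Agar dilution, 12 plates/compound; inoc 1:100 (1:10 Micrococcus, Streptococcus); 35°-37° C, 20–24 h. Erythromycin A reference plate plus drug-free growth controls at start and end. Endpoint = no growth/slight haze/sparse colonies.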"}
{"smiles": "CCCO[C@@]1(C)C[C@@H](C)C(=O)[C@H](C)[C@@H](O)[C@](C)(O)[C@@H](CC)OC(=O)[C@H](C)C(=O)[C@H](C)[C@H]1O[C@@H]1O[C@H](C)C[C@H](N(C)C)[C@H]1O", "note": "[Example 3, Compound of Formula (VIII): X is O, R is propyl]", "values": [{"measurement": "MIC", "setting": "Candida albicans CCH 442 (code TT)", "value": "> 100", "unit": "µg/mL"}, {"measurement": "MIC", "setting": "Enterococcus faecism ATCC 8043 (code II)", "value": 25, "unit": "µg/mL"}, {"measurement": "MIC", "setting": "Escherichia coli DC-2 (code SS)", "value": "> 100", "unit": "µg/mL"}, {"measurement": "MIC", "setting": "Escherichia coli JUHL (code QQ)", "value": "> 100", "unit": "µg/mL"}, {"measurement": "MIC", "setting": "Escherichia coli SS (code RR)", "value": 50, "unit": "µg/mL"}, {"measurement": "MIC", "setting": "Micrococcus luteus ATCC 4698 (code PP)", "value": 100, "unit": "µg/mL"}, {"measurement": "MIC", "setting": "Micrococcus luteus ATCC 9341 (code OO)", "value": 12.5, "unit": "µg/mL"}, {"measurement": "MIC", "setting": "Mycobacterium smegmatis ATCC 114 (code UU)", "value": "> 100", "unit": "µg/mL"}, {"measurement": "MIC", "setting": "Nocardia Asteroides ATCC9970 (code VV)", "value": 12.5, "unit": "µg/mL"}, {"measurement": "MIC", "setting": "Staphylococcus aureus 1775 (code GG)", "value": "> 100", "unit": "µg/mL"}, {"measurement": "MIC", "setting": "Staphylococcus aureus A5177 (code BB)", "value": "> 100", "unit": "µg/mL"}, {"measurement": "MIC", "setting": "Staphylococcus aureus A-5278 (code CC)", "value": "> 100", "unit": "µg/mL"}, {"measurement": "MIC", "setting": "Staphylococcus aureus ATCC 6538P (code AA)", "value": 25, "unit": "µg/mL"}, {"measurement": "MIC", "setting": "Staphylococcus aureus CMX 553 (code FF)", "value": 25, "unit": "µg/mL"}, {"measurement": "MIC", "setting": "Staphylococcus aureus CMX 642A (code DD)", "value": 100, "unit": "µg/mL"}, {"measurement": "MIC", "setting": "Staphylococcus aureus NCTC10649M (code EE)", "value": 25, "unit": "µg/mL"}, {"measurement": "MIC", "setting": "Staphylococcus epidermidis 3519 (code HH)", "value": 50, "unit": "µg/mL"}, {"measurement": "MIC", "setting": "Streptococcus agalactiae CMX 508 (code KK)", "value": 25, "unit": "µg/mL"}, {"measurement": "MIC", "setting": "Streptococcus bovis A-5169 (code JJ)", "value": 25, "unit": "µg/mL"}, {"measurement": "MIC", "setting": "Streptococcus pyogenes 930 (code MM)", "value": "> 100", "unit": "µg/mL"}, {"measurement": "MIC", "setting": "Streptococcus pyogenes EES61 (code LL)", "value": 100, "unit": "µg/mL"}, {"measurement": "MIC", "setting": "Streptococcus pyogenes PIU 2548 (code NN)", "value": 100, "unit": "µg/mL"}]}
{"smiles": "CC[C@H]1OC(=O)[C@H](C)C(=O)[C@H](C)[C@@H](O[C@@H]2O[C@H](C)C[C@H](N(C)C)[C@H]2O)[C@@](C)(OCC=NOCc2ccc3ccccc3n2)C[C@@H](C)C(=O)[C@H](C)[C@H]2NC(=O)O[C@@]21C", "note": "[Example 232, Compound of Formula (IX): L is CO, T is NH, R is —CH2CH═NOCH2(2-quinolyl)]", "values": [{"measurement": "MIC", "setting": "organism code AA", "value": 0.1, "unit": "µg/mL"}, {"measurement": "MIC", "setting": "organism code BB", "value": 0.1, "unit": "µg/mL"}, {"measurement": "MIC", "setting": "organism code CC", "value": "> 100", "unit": "µg/mL"}, {"measurement": "MIC", "setting": "organism code DD", "value": 0.2, "unit": "µg/mL"}, {"measurement": "MIC", "setting": "organism code EE", "value": 0.2, "unit": "µg/mL"}, {"measurement": "MIC", "setting": "organism code FF", "value": 0.1, "unit": "µg/mL"}, {"measurement": "MIC", "setting": "organism code GG", "value": "> 100", "unit": "µg/mL"}, {"measurement": "MIC", "setting": "organism code HH", "value": 0.2, "unit": "µg/mL"}, {"measurement": "MIC", "setting": "organism code II", "value": 0.02, "unit": "µg/mL"}, {"measurement": "MIC", "setting": "organism code JJ", "value": 0.02, "unit": "µg/mL"}, {"measurement": "MIC", "setting": "organism code KK", "value": 0.02, "unit": "µg/mL"}, {"measurement": "MIC", "setting": "organism code LL", "value": 0.02, "unit": "µg/mL"}, {"measurement": "MIC", "setting": "organism code MM", "value": "> 100", "unit": "µg/mL"}, {"measurement": "MIC", "setting": "organism code NN", "value": 0.2, "unit": "µg/mL"}, {"measurement": "MIC", "setting": "organism code OO", "value": 0.02, "unit": "µg/mL"}, {"measurement": "MIC", "setting": "organism code PP", "value": 0.2, "unit": "µg/mL"}, {"measurement": "MIC", "setting": "organism code QQ", "value": 25, "unit": "µg/mL"}, {"measurement": "MIC", "setting": "organism code RR", "value": 0.39, "unit": "µg/mL"}, {"measurement": "MIC", "setting": "organism code SS", "value": "> 100", "unit": "µg/mL"}, {"measurement": "MIC", "setting": "organism code TT", "value": "> 100", "unit": "µg/mL"}, {"measurement": "MIC", "setting": "organism code UU", "value": 0.39, "unit": "µg/mL"}, {"measurement": "MIC", "setting": "organism code VV", "value": 0.05, "unit": "µg/mL"}, {"measurement": "MIC", "setting": "organism code WW", "value": 2, "unit": "µg/mL"}, {"measurement": "MIC", "setting": "organism code XX", "value": 0.03, "unit": "µg/mL"}, {"measurement": "MIC", "setting": "organism code YY", "value": 0.03, "unit": "µg/mL"}, {"measurement": "MIC", "setting": "organism code ZZ", "value": "> 128", "unit": "µg/mL"}, {"measurement": "MIC", "setting": "organism code ZZA", "value": 0.5, "unit": "µg/mL"}]}
{"smiles": "CCC(=O)OC1C(OC2C(C)C(=O)C(C)C(=O)OC(CC)C3(C)OC(=O)NC3C(C)C(=O)C(C)CC2(C)OCC=Cc2cnc3ccccc3c2)OC(C)CC1N(C)C", "note": "(stereo not drawn) [Example 244, Compound of Formula (III): R^c is propanoyl, L is CO, T is NH, R is —CH2CH═CH(3-quinolyl)]", "values": [{"measurement": "MIC", "setting": "organism code AA", "value": 0.1, "unit": "µg/mL"}, {"measurement": "MIC", "setting": "organism code BB", "value": 0.2, "unit": "µg/mL"}, {"measurement": "MIC", "setting": "organism code CC", "value": "> 100", "unit": "µg/mL"}, {"measurement": "MIC", "setting": "organism code DD", "value": 0.2, "unit": "µg/mL"}, {"measurement": "MIC", "setting": "organism code EE", "value": 0.2, "unit": "µg/mL"}, {"measurement": "MIC", "setting": "organism code FF", "value": 0.1, "unit": "µg/mL"}, {"measurement": "MIC", "setting": "organism code GG", "value": "> 100", "unit": "µg/mL"}, {"measurement": "MIC", "setting": "organism code HH", "value": 0.2, "unit": "µg/mL"}, {"measurement": "MIC", "setting": "organism code II", "value": 0.05, "unit": "µg/mL"}, {"measurement": "MIC", "setting": "organism code JJ", "value": 0.01, "unit": "µg/mL"}, {"measurement": "MIC", "setting": "organism code KK", "value": "≤ 0.005", "unit": "µg/mL"}, {"measurement": "MIC", "setting": "organism code LL", "value": 0.02, "unit": "µg/mL"}, {"measurement": "MIC", "setting": "organism code MM", "value": 1.56, "unit": "µg/mL"}, {"measurement": "MIC", "setting": "organism code NN", "value": 0.2, "unit": "µg/mL"}, {"measurement": "MIC", "setting": "organism code OO", "value": 0.02, "unit": "µg/mL"}, {"measurement": "MIC", "setting": "organism code PP", "value": 0.2, "unit": "µg/mL"}, {"measurement": "MIC", "setting": "organism code QQ", "value": 50, "unit": "µg/mL"}, {"measurement": "MIC", "setting": "organism code RR", "value": 0.1, "unit": "µg/mL"}, {"measurement": "MIC", "setting": "organism code SS", "value": 25, "unit": "µg/mL"}, {"measurement": "MIC", "setting": "organism code TT", "value": "> 100", "unit": "µg/mL"}, {"measurement": "MIC", "setting": "organism code UU", "value": 0.78, "unit": "µg/mL"}, {"measurement": "MIC", "setting": "organism code VV", "value": 0.02, "unit": "µg/mL"}, {"measurement": "MIC", "setting": "organism code WW", "value": 2, "unit": "µg/mL"}, {"measurement": "MIC", "setting": "organism code XX", "value": 0.03, "unit": "µg/mL"}, {"measurement": "MIC", "setting": "organism code YY", "value": 0.03, "unit": "µg/mL"}, {"measurement": "MIC", "setting": "organism code ZZ", "value": 64, "unit": "µg/mL"}, {"measurement": "MIC", "setting": "organism code ZZA", "value": 0.5, "unit": "µg/mL"}]}
{"smiles": "CC[C@H]1OC(=O)[C@H](C)C(=O)[C@H](C)[C@@H](O[C@@H]2O[C@H](C)C[C@H](N(C)C)[C@H]2O)[C@@](C)(OCC=NOCc2ccc3ccccc3c2)C[C@@H](C)C(=O)[C@H](C)[C@H]2NC(=O)O[C@@]21C", "note": "[Example 236, Compound of Formula (IX): L is CO, T is NH, R is —CH2CH═NOCH2(2-naphthyl)]", "values": [{"measurement": "MIC", "setting": "organism code AA", "value": 0.2, "unit": "µg/mL"}, {"measurement": "MIC", "setting": "organism code BB", "value": 0.2, "unit": "µg/mL"}, {"measurement": "MIC", "setting": "organism code CC", "value": "> 100", "unit": "µg/mL"}, {"measurement": "MIC", "setting": "organism code DD", "value": 0.2, "unit": "µg/mL"}, {"measurement": "MIC", "setting": "organism code EE", "value": 0.2, "unit": "µg/mL"}, {"measurement": "MIC", "setting": "organism code FF", "value": 0.2, "unit": "µg/mL"}, {"measurement": "MIC", "setting": "organism code GG", "value": "> 100", "unit": "µg/mL"}, {"measurement": "MIC", "setting": "organism code HH", "value": 0.2, "unit": "µg/mL"}, {"measurement": "MIC", "setting": "organism code II", "value": 0.05, "unit": "µg/mL"}, {"measurement": "MIC", "setting": "organism code JJ", "value": 0.05, "unit": "µg/mL"}, {"measurement": "MIC", "setting": "organism code KK", "value": 0.05, "unit": "µg/mL"}, {"measurement": "MIC", "setting": "organism code LL", "value": 0.01, "unit": "µg/mL"}, {"measurement": "MIC", "setting": "organism code MM", "value": 25, "unit": "µg/mL"}, {"measurement": "MIC", "setting": "organism code NN", "value": 0.2, "unit": "µg/mL"}, {"measurement": "MIC", "setting": "organism code OO", "value": 0.05, "unit": "µg/mL"}, {"measurement": "MIC", "setting": "organism code PP", "value": 0.1, "unit": "µg/mL"}, {"measurement": "MIC", "setting": "organism code QQ", "value": 50, "unit": "µg/mL"}, {"measurement": "MIC", "setting": "organism code RR", "value": 0.39, "unit": "µg/mL"}, {"measurement": "MIC", "setting": "organism code SS", "value": "> 100", "unit": "µg/mL"}, {"measurement": "MIC", "setting": "organism code TT", "value": "> 100", "unit": "µg/mL"}, {"measurement": "MIC", "setting": "organism code UU", "value": 0.39, "unit": "µg/mL"}, {"measurement": "MIC", "setting": "organism code VV", "value": 0.2, "unit": "µg/mL"}, {"measurement": "MIC", "setting": "organism code WW", "value": 4, "unit": "µg/mL"}, {"measurement": "MIC", "setting": "organism code XX", "value": 0.03, "unit": "µg/mL"}, {"measurement": "MIC", "setting": "organism code YY", "value": 0.03, "unit": "µg/mL"}, {"measurement": "MIC", "setting": "organism code ZZ", "value": 32, "unit": "µg/mL"}]}
